Assays:
[1] = test system: CK2α; assay: Slug expression after CK2α RNA interference, H1299 cells; type: cell-based, human; conditions: Scr and NatD-KD H1299 cells, particularly in NatD-KD cells
From the text: Fig. 7 Downregulation of Nt-acetylation of histone H4 facilitates nuclear accumulation of CK2α and its binding to histone H4 in lung cancer cells. a Representative confocal scanning images of CK2α localization in Scr and H1299 cells (left panel). The staining intensity of CK2α was quantified by software ImageJ from NIH (right diagram). Scale bars, 5 μm. […] Equal peptide biotinylated on C terminus is shown by dot blot analysis with streptavidin (middle panel). […] IgG served as a negative control. Results are shown as mean ± s.d. from three independent experiments; two-tailed Student’s t-test, **P < 0.01 compared with the indicated control. g Quantitative real-time PCR analysis of mRNA levels of CK2α and Slug normalized to GAPDH in Scr and NatD-KD H1299 cells in the absence or presence of siRNA to CK2α. NC, siRNA mimics negative control. Data are mean ± s.d. of three independent experiments; Student’s t-test, *P < 0.05, **P < 0.01 compared with the indicated control. h Western blot analysis of indicated proteins from Scr and NatD-KD H1299 cells in the absence or presence of siRNA to CK2α.
siRNA against CK2α and negative control (NC) siRNA were synthesized by RiboBio Co. Ltd (Gaungzhou, China).

[2] = test system: H1299 cells; assay: TGF-β1-induced EMT experiment (morphology), H1299 cells; type: cell-based, human; conditions: Scr H1299 cells, TGF-β1
From the text: Fig. 4 Silencing NatD suppresses cancer cell EMT by downregulating Slug. a Representative phase contrast images of Scr and NatD-KD H1299 cells treated with TGF-β1. Data are representative of three independent experiments. Scale bar, 100 μm. b Quantitative real-time PCR analysis of mRNA levels of indicated key EMT-related genes in Scr and NatD-KD H1299 cells normalized to GAPDH in the absence or presence of TGF-β1. Results are shown as mean ± s.d. of three independent experiments. Two-tailed Student’s t-test was used. **P < 0.01 or *P < 0.05 compared with the indicated control. c Western blot analysis of indicated protein levels in Scr and NatD-KD H1299 cells in the absence or presence of TGF-β1. GAPDH served as a loading control. Data are representative of three independent experiments. d Immunofluorescence analysis of Scr and NatD-KD H1299 cells in the absence or presence of TGF-β1 stained for E-cadherin and N-cadherin. […] (bottom panels) Cells were counted in at least four random microscope fields (×100 magnification) for the corresponding assays; migration and invasion are expressed as a percentage of control. […] Two-tailed Student’s t-test was used. **P < 0.01 compared with the indicated control. g Quantitative real-time PCR analysis of the mRNA levels of NatD and indicated key EMT-related genes (normalized to GAPDH) in Scr cells, NatD-KD cells, and NatD-KD + Slug cells. […]

Substance	Slug expression after CK2α knockdown [1]	Slug expression after CK2α knockdown ([1]; listed as knockdown of CK2α by RNA interference)	morphology on TGF-β1 treatment, Scr cells [2]
CK2α siRNA: siRNA against CK2α: 5′-GAAUUAGAUCCACGUUUCA-3′ (chemistry not given here)	greatly activated	significantly increased	–
TGF-β1: TGF-β1 used to induce EMT [reference compound]	–	–	developed a spindle-like appearance and mesenchymal morphology

— PMC5640650, “NatD promotes lung cancer progression by preventing histone H4 serine phosphorylation to activate Slug expression” (Nature Communications, 2017)
